# Experimental data: US8192962B2, “Processes for detecting toxic substances” (Daikin Industries, Ltd., priority 2001, dated 2012)
# System: Unknown protein yeast genes
# Experiment: DNA chip mRNA expression in yeast, unknown protein yeast genes (Table 1)
# Assay type: cell-based, Saccharomyces cerevisiae S288C
# In short: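 S. cerevisiae S288C grown at 25° C. in YPD to log phase, then exposed 2 h to a toxicant at a growth-inhibiting, non-lethal concentration; untreated cells as control. Poly(A) mRNA reverse-transcribed with Cy3-dUTP or Cy5-dUTP, hybridized >12 h at 65° C. to whole-genome yeast DNA chip; value = fluorescence ratio treated/untreated.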
smiles,measurement,setting,value
"CCCCCCCCCCCCc1ccc(S(=O)(=O)[O-])cc1.[Na+] [(17), sodium dodecylbenzosulfonate]",The level of expressed mRNA in the presence of chemical substance/The level of expressed mRNA in the absence of chemical substance,"yeast gene YAL053W, incubated two hours with chemical substance",1.2
same,The level of expressed mRNA in the presence of chemical substance/The level of expressed mRNA in the absence of chemical substance,yeast gene YBL048W,1.3
same,The level of expressed mRNA in the presence of chemical substance/The level of expressed mRNA in the absence of chemical substance,yeast gene YBL107C,0.9
same,The level of expressed mRNA in the presence of chemical substance/The level of expressed mRNA in the absence of chemical substance,"yeast gene YDL072C, incubated two hours with chemical substance",1.6
same,The level of expressed mRNA in the presence of chemical substance/The level of expressed mRNA in the absence of chemical substance,"yeast gene YDL204W, incubated two hours with chemical substance",1.8
same,The level of expressed mRNA in the presence of chemical substance/The level of expressed mRNA in the absence of chemical substance,"yeast gene YDL222C, incubated two hours with chemical substance",0.9
same,The level of expressed mRNA in the presence of chemical substance/The level of expressed mRNA in the absence of chemical substance,"yeast gene YDR330W, incubated two hours with chemical substance",1.5
same,The level of expressed mRNA in the presence of chemical substance/The level of expressed mRNA in the absence of chemical substance,"yeast gene YDR411C, incubated two hours with chemical substance",1.5
same,The level of expressed mRNA in the presence of chemical substance/The level of expressed mRNA in the absence of chemical substance,"yeast gene YDR511W, incubated two hours with chemical substance",1.3
same,The level of expressed mRNA in the presence of chemical substance/The level of expressed mRNA in the absence of chemical substance,"yeast gene YDR545W, incubated two hours with chemical substance",0.9
same,The level of expressed mRNA in the presence of chemical substance/The level of expressed mRNA in the absence of chemical substance,"yeast gene YEL001C, incubated two hours with chemical substance",0.7
same,The level of expressed mRNA in the presence of chemical substance/The level of expressed mRNA in the absence of chemical substance,"yeast gene YER004W, incubated two hours with chemical substance",1.4
same,The level of expressed mRNA in the presence of chemical substance/The level of expressed mRNA in the absence of chemical substance,"yeast gene YER035W, incubated two hours with chemical substance",2.2
same,The level of expressed mRNA in the presence of chemical substance/The level of expressed mRNA in the absence of chemical substance,"yeast gene YER079W, incubated two hours with chemical substance",1.0
same,The level of expressed mRNA in the presence of chemical substance/The level of expressed mRNA in the absence of chemical substance,"yeast gene YER106W, incubated two hours with chemical substance",0.8
same,The level of expressed mRNA in the presence of chemical substance/The level of expressed mRNA in the absence of chemical substance,"yeast gene YER158C, incubated two hours with chemical substance",1.6
same,The level of expressed mRNA in the presence of chemical substance/The level of expressed mRNA in the absence of chemical substance,"yeast gene YER163C, incubated two hours with chemical substance",1.2
same,The level of expressed mRNA in the presence of chemical substance/The level of expressed mRNA in the absence of chemical substance,"yeast gene YER175C, incubated two hours with chemical substance",0.9
same,The level of expressed mRNA in the presence of chemical substance/The level of expressed mRNA in the absence of chemical substance,"yeast gene YFL006W, incubated two hours with chemical substance",1.0
same,The level of expressed mRNA in the presence of chemical substance/The level of expressed mRNA in the absence of chemical substance,"yeast gene YFL010C, incubated two hours with chemical substance",1.9
same,The level of expressed mRNA in the presence of chemical substance/The level of expressed mRNA in the absence of chemical substance,yeast gene YFL024C,0.9
same,The level of expressed mRNA in the presence of chemical substance/The level of expressed mRNA in the absence of chemical substance,"yeast gene YFL032W, incubated two hours with chemical substance",1.7
same,The level of expressed mRNA in the presence of chemical substance/The level of expressed mRNA in the absence of chemical substance,"yeast gene YGL037C, incubated two hours with chemical substance",1.3
same,The level of expressed mRNA in the presence of chemical substance/The level of expressed mRNA in the absence of chemical substance,"yeast gene YGL047W, incubated two hours with chemical substance",1.1
same,The level of expressed mRNA in the presence of chemical substance/The level of expressed mRNA in the absence of chemical substance,"yeast gene YGL053W, incubated two hours with chemical substance",2.2
same,The level of expressed mRNA in the presence of chemical substance/The level of expressed mRNA in the absence of chemical substance,yeast gene YGL121C,2.7
same,The level of expressed mRNA in the presence of chemical substance/The level of expressed mRNA in the absence of chemical substance,"yeast gene YGL199C, incubated two hours with chemical substance",1.2
same,The level of expressed mRNA in the presence of chemical substance/The level of expressed mRNA in the absence of chemical substance,"yeast gene YGR101W, incubated two hours with chemical substance",1.0
same,The level of expressed mRNA in the presence of chemical substance/The level of expressed mRNA in the absence of chemical substance,yeast gene YGR110W,0.9
same,The level of expressed mRNA in the presence of chemical substance/The level of expressed mRNA in the absence of chemical substance,"yeast gene YGR130C, incubated two hours with chemical substance",1.3
same,The level of expressed mRNA in the presence of chemical substance/The level of expressed mRNA in the absence of chemical substance,"yeast gene YGR154C, incubated two hours with chemical substance",1.0
same,The level of expressed mRNA in the presence of chemical substance/The level of expressed mRNA in the absence of chemical substance,"yeast gene YGR221C, incubated two hours with chemical substance",1.3
same,The level of expressed mRNA in the presence of chemical substance/The level of expressed mRNA in the absence of chemical substance,"yeast gene YHR138C, incubated two hours with chemical substance",5.0
same,The level of expressed mRNA in the presence of chemical substance/The level of expressed mRNA in the absence of chemical substance,"yeast gene YHR199C, incubated two hours with chemical substance",1.1
same,The level of expressed mRNA in the presence of chemical substance/The level of expressed mRNA in the absence of chemical substance,"yeast gene YIL023C, incubated two hours with chemical substance",1.2
same,The level of expressed mRNA in the presence of chemical substance/The level of expressed mRNA in the absence of chemical substance,"yeast gene YIL041W, incubated two hours with chemical substance",0.8
same,The level of expressed mRNA in the presence of chemical substance/The level of expressed mRNA in the absence of chemical substance,"yeast gene YIL087C, incubated two hours with chemical substance",1.7
same,The level of expressed mRNA in the presence of chemical substance/The level of expressed mRNA in the absence of chemical substance,"yeast gene YJL057C, incubated two hours with chemical substance",1.4
same,The level of expressed mRNA in the presence of chemical substance/The level of expressed mRNA in the absence of chemical substance,"yeast gene YJL066C, incubated two hours with chemical substance",1.4
same,The level of expressed mRNA in the presence of chemical substance/The level of expressed mRNA in the absence of chemical substance,"yeast gene YJL082W, incubated two hours with chemical substance",0.6
same,The level of expressed mRNA in the presence of chemical substance/The level of expressed mRNA in the absence of chemical substance,"yeast gene YJL151C, incubated two hours with chemical substance",3.5
same,The level of expressed mRNA in the presence of chemical substance/The level of expressed mRNA in the absence of chemical substance,"yeast gene YJL152W, incubated two hours with chemical substance",2.5
same,The level of expressed mRNA in the presence of chemical substance/The level of expressed mRNA in the absence of chemical substance,"yeast gene YJL161W, incubated two hours with chemical substance",1.9
same,The level of expressed mRNA in the presence of chemical substance/The level of expressed mRNA in the absence of chemical substance,"yeast gene YJL171C, incubated two hours with chemical substance",3.6
same,The level of expressed mRNA in the presence of chemical substance/The level of expressed mRNA in the absence of chemical substance,"yeast gene YJR008W, incubated two hours with chemical substance",1.5
same,The level of expressed mRNA in the presence of chemical substance/The level of expressed mRNA in the absence of chemical substance,"yeast gene YJR054W, incubated two hours with chemical substance",0.9
same,The level of expressed mRNA in the presence of chemical substance/The level of expressed mRNA in the absence of chemical substance,yeast gene YKL071W,1.0
same,The level of expressed mRNA in the presence of chemical substance/The level of expressed mRNA in the absence of chemical substance,"yeast gene YKL086W, incubated two hours with chemical substance",0.9
same,The level of expressed mRNA in the presence of chemical substance/The level of expressed mRNA in the absence of chemical substance,"yeast gene YKL151C, incubated two hours with chemical substance",1.4
same,The level of expressed mRNA in the presence of chemical substance/The level of expressed mRNA in the absence of chemical substance,"yeast gene YKL153W, incubated two hours with chemical substance",0.9
